This test has as its target human mGlu4 receptor (Homo sapiens (Human), UniProt Q14833). The test is described as follows: Ca2+ mobilization in vitro assay on recombinant human mGlu4 expressed in HEK293 cells (PAM). The format is cell-based. The following applies: for Emax: HEK293, maximal response in % of maximal stimulatory effect of saturating L-AP4, read-out: Eff. (%); for EC50: HEK293 cells, human mGlu4, in presence of EC20 of L-AP4, read-out: EC50 (nM) mGlu4PAM. The source says: FIG. 1: Illustrates the experimental outline for mGlu4 PAM Ca^2+ mobilization screening assay and the determination of EC50 and % Emax values. […] A depression of the signal observed after addition of the EC20 concentration of L-AP4 was indicative of an inhibitory activity of the test compound.
Determination of EC50 Values Using a Ca2+ Mobilization In Vitro Assay on Recombinant Human mGlu4 Expressed in HEK293 Cells:
A monoclonal HEK-293 cell line stably transfected with a cDNA encoding for the human mGlu4 receptor was generated; for the work with mGlu4 Positive Allosteric Modulators (PAMs), a cell line with low receptor expression levels and low constitutive receptor activity was selected to allow the differentiation of agonistic versus PAM activity. Cells were cultured according to standard protocols (Freshney, 2000) in Dulbecco's Modified Eagle Medium with high glucose supplemented with 1 mM glutamine, 10% (vol/vol) heat-inactivated bovine calf serum, Penicillin/Streptomycin, 50 μg/ml hygromycin and 15 μg/ml blasticidin (all cell culture reagents and antibiotics from Invitrogen, Basel, Switzerland).
About 24 hrs before an experiment, 5×10^4 cells/well were seeded in poly-D-lysine coated, black/clear-bottomed 96-well plates. The cells were loaded with 2.5 μM Fluo-4AM in loading buffer (1×HBSS, 20 mM HEPES) for 1 hr at 37° C. and washed five times with loading buffer. The cells were transferred into a Functional Drug Screening System 7000 (Hamamatsu, Paris, France), and 11 half logarithmic serial dilutions of test compound at 37° C. were added and the cells were incubated for 10-30 min. with on-line recording of fluorescence. Following this pre-incubation step, the agonist (2S)-2-amino-4-phosphonobutanoic acid (L-AP4) was added to the cells at a concentration corresponding to EC20 with on-line recording of fluorescence; in order to account for day-to-day variations in the responsiveness of cells, the EC20 of L-AP4 was determined immediately ahead of each experiment by recording of a full dose-response curve of L-AP4.
Responses were measured as peak increase in fluorescence minus basal (i.e. fluorescence without addition of L-AP4), normalized to the maximal stimulatory effect obtained with saturating concentrations of L-AP4. Graphs were plotted with the % maximal stimulatory using XLfit, a curve fitting program that iteratively plots the data using Levenburg Marquardt algorithm. The single site competition analysis equation used was y=A+((B−A)/(1+((x/C)D))), where y is the % maximal stimulatory effect, A is the minimum y, B is the maximum y, C is the EC50, x is the log 10 of the concentration of the competing compound and D is the slope of the curve (the Hill Coefficient). From these curves the EC50 (drug concentration at which 50% of the maximal receptor activation was achieved), the Hill coefficient as well as the maximal response in % of the maximal stimulatory effect obtained with saturating concentrations of L-AP4 were calculated (see FIG. 1).
(In general: Calcium flux is commonly read through the fluorescence of an indicator in the cells.)

human mGlu4 receptor, sequence (Q14833 33-912): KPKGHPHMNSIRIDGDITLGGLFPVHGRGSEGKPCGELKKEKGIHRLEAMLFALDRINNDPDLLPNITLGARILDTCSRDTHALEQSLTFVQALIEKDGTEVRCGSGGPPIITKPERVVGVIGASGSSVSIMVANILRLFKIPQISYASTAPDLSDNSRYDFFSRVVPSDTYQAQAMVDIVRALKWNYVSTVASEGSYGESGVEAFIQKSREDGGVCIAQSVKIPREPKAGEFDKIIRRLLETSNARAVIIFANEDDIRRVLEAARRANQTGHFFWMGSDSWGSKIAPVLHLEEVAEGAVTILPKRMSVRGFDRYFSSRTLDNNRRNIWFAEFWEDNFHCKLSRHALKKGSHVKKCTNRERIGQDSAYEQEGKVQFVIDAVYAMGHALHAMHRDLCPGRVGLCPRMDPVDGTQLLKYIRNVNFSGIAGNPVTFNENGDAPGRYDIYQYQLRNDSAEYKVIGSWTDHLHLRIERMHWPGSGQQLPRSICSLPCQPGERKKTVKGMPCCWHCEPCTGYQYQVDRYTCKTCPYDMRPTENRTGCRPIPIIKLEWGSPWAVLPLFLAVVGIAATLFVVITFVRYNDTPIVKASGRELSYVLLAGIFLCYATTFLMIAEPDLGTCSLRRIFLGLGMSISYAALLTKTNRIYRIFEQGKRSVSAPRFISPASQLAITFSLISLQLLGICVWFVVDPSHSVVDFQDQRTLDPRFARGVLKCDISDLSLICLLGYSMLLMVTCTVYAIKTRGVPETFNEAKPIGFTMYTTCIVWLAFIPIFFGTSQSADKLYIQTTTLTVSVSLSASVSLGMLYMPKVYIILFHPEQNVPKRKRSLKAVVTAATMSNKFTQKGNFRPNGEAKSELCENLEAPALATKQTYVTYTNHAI

Take `CC12CC(=O)N(c3c(F)cc(C#Cc4ccccc4)cc3Cl)C(=O)N1CCN(c1ccncc1)C2=O` (racemic) [Example 75, (9aRS)-7-[2-chloro-6-fluoro-4-(2-phenylethynyl)phenyl]-9a-methyl-2-(4-pyridyl)-4,9-dihydro-3H-pyrazino[1,2-c]pyrimidine-1,6,8-trione]: the Emax was 128% and the EC50 came out at 210 nM. As for `Cn1cnc(N2CCN3C(=O)N(c4c(F)cc(C#Cc5ccccc5)cc4F)C(=O)C[C@@]3(C)C2=O)n1` [Example 73, (9aS)-7-[2,6-difluoro-4-(2-phenylethynyl)phenyl]-9a-methyl-2-(1-methyl-1,2,4-triazol-3-yl)-4,9-dihydro-3H-pyrazino[1,2-c]pyrimidine-1,6,8-trione], the Emax was 138% and the EC50 was 244 nM. As to `Cc1cncnc1N1CCN2C(=O)N(c3c(F)cc(C#Cc4ccccc4)cc3F)C(=O)C[C@@]2(C)C1=O` [Example 36, (9aS)-7-[2,6-difluoro-4-(2-phenylethynyl)phenyl]-9a-methyl-2-(5-methylpyrimidin-4-yl)-4,9-dihydro-3H-pyrazino[1,2-c]pyrimidine-1,6,8-trione], the Emax was 132% and the EC50 was determined as 86 nM. Consider `CC(C)(C)Oc1ncc(N2CCN3C(=O)N(c4c(F)cc(C#Cc5ccccc5)cc4F)C(=O)C[C@@]3(C)C2=O)cn1` [Example 38, (9aS)-2-(2-tert-butoxypyrimidin-5-yl)-7-[2,6-difluoro-4-(2-phenylethynyl)phenyl]-9a-methyl-4,9-dihydro-3H-pyrazino[1,2-c]pyrimidine-1,6,8-trione], for which the Emax was 107%.

As for `CC(C)n1cc(N2CCN3C(=O)N(c4c(F)cc(C#Cc5ccccc5)cc4F)C(=O)C[C@@]3(C)C2=O)cn1` [Example 70, (9aS)-7-[2,6-difluoro-4-(2-phenylethynyl)phenyl]-2-(1-isopropylpyrazol-4-yl)-9a-methyl-4,9-dihydro-3H-pyrazino[1,2-c]pyrimidine-1,6,8-trione], the Emax stood at 150% and the EC50 worked out at 139 nM. `C[C@@]12CC(=O)N(c3c(F)cc(C#Cc4ccccc4)cc3F)C(=O)N1CCN(c1ccncc1)C2=O` [Example 9, (9aS)-7-[2,6-difluoro-4-(2-phenylethynyl)phenyl]-9a-methyl-2-(4-pyridyl)-4,9-dihydro-3H-pyrazino[1,2-c]pyrimidine-1,6,8-trione]: the Emax amounted to 85% and the EC50 amounted to 29 nM. As for `Cc1cc(N2CCN3C(=O)N(c4c(F)cc(C#Cc5ccccc5)cc4F)C(=O)C[C@@]3(C)C2=O)ncn1` [Example 35, (9aS)-7-[2,6-difluoro-4-(2-phenylethynyl)phenyl]-9a-methyl-2-(6-methylpyrimidin-4-yl)-4,9-dihydro-3H-pyrazino[1,2-c]pyrimidine-1,6,8-trione], the Emax stood at 121% and the EC50 came to 91 nM.

In the case of `Cc1nc(N2CCN3C(=O)N(c4c(F)cc(C#Cc5ccccc5)cc4F)C(=O)CC3(C)C2=O)cn1C` (racemic) [Example 60, (9aRS)-7-[2,6-difluoro-4-(2-phenylethynyl)phenyl]-2-(1,2-dimethylimidazol-4-yl)-9a-methyl-4,9-dihydro-3H-pyrazino[1,2-c]pyrimidine-1,6,8-trione], the Emax is 137% and the EC50 came out at 145 nM. Regarding `C[C@@]12CC(=O)N(c3c(F)cc(C#Cc4ccccc4)cc3F)C(=O)N1CCN(c1ccnc(Cl)c1)C2=O` [Example 19, (9aS)-2-(2-chloro-4-pyridyl)-7-[2,6-difluoro-4-(2-phenylethynyl)phenyl]-9a-methyl-4,9-dihydro-3H-pyrazino[1,2-c]pyrimidine-1,6,8-trione], the Emax worked out at 100% and the EC50 came out at 69 nM. Taken in the same sequence, the figures for `C[C@@]12CC(=O)N(c3c(F)cc(C#Cc4ccccc4)cc3F)C(=O)N1CCN(Cc1ccccc1F)C2=O` [Example 89, (9aS)-7-[2,6-difluoro-4-(2-phenylethynyl)phenyl]-2-[(2-fluorophenyl)methyl]-9a-methyl-4,9-dihydro-3H-pyrazino[1,2-c]pyrimidine-1,6,8-trione] were 98% and 149 nM. For `CC12CC(=O)N(c3c(F)cc(C#Cc4ccccc4)cc3F)C(=O)N1CCN(c1cncnc1)C2=O` (racemic) [Example 28, (9aRS)-7-[2,6-difluoro-4-(2-phenylethynyl)phenyl]-9a-methyl-2-pyrimidin-5-yl-4,9-dihydro-3H-pyrazino[1,2-c]pyrimidine-1,6,8-trione], the Emax amounted to 120% and the EC50 came out at 145 nM. For `Cc1ccc(N2CCN3C(=O)N(c4c(F)cc(C#Cc5ccccc5)cc4F)C(=O)CC3(C)C2=O)cn1` (racemic) [Example 16, (9aRS)-7-[2,6-difluoro-4-(2-phenylethynyl)phenyl]-9a-methyl-2-(6-methyl-3-pyridyl)-4,9-dihydro-3H-pyrazino[1,2-c]pyrimidine-1,6,8-trione] the same measures were 125% and 298 nM. Consider `COc1ccc(N2CCN3C(=O)N(c4c(F)cc(C#Cc5ccccc5)cc4F)C(=O)CC3(C)C2=O)cn1` (racemic) [Example 22, (9aRS)-7-[2,6-difluoro-4-(2-phenylethynyl)phenyl]-2-(6-methoxy-3-pyridyl)-9a-methyl-4,9-dihydro-3H-pyrazino[1,2-c]pyrimidine-1,6,8-trione], for which the Emax was determined as 106% and the EC50 is 105 nM.

Regarding `CC12CC(=O)N(c3c(F)cc(C#Cc4ccccc4)cc3Cl)C(=O)N1CCN(c1ccccn1)C2=O` (racemic) [Example 76, (9aRS)-7-[2-chloro-6-fluoro-4-(2-phenylethynyl)phenyl]-9a-methyl-2-(2-pyridyl)-4,9-dihydro-3H-pyrazino[1,2-c]pyrimidine-1,6,8-trione], the Emax was found to be 150% and the EC50 came to 128 nM. On to `COc1cnc(N2CCN3C(=O)N(c4c(F)cc(C#Cc5ccccc5)cc4F)C(=O)C[C@@]3(C)C2=O)cn1` [Example 44, (9aS)-7-[2,6-difluoro-4-(2-phenylethynyl)phenyl]-2-(5-methoxypyrazin-2-yl)-9a-methyl-4,9-dihydro-3H-pyrazino[1,2-c]pyrimidine-1,6,8-trione], for which the Emax was found to be 107% and the EC50 was found to be 123 nM.

Consider `COc1ccc(N2CCN3C(=O)N(c4c(F)cc(C#Cc5ccccc5)cc4F)C(=O)C[C@@]3(C)C2=O)cn1` [Example 23, (9aS)-7-[2,6-difluoro-4-(2-phenylethynyl)phenyl]-2-(6-methoxy-3-pyridyl)-9a-methyl-4,9-dihydro-3H-pyrazino[1,2-c]pyrimidine-1,6,8-trione], for which the Emax worked out at 114% and the EC50 was 61 nM. Turning to `CC12CC(=O)N(c3c(F)cc(C#Cc4ccccc4)cc3F)C(=O)N1CCN(c1ccncn1)C2=O` (racemic) [Example 26, (9aRS)-7-[2,6-difluoro-4-(2-phenylethynyl)phenyl]-9a-methyl-2-pyrimidin-4-yl-4,9-dihydro-3H-pyrazino[1,2-c]pyrimidine-1,6,8-trione], the Emax amounted to 101% and the EC50 turned out to be 36 nM.

For `Cc1ccccc1CN1CCN2C(=O)N(c3c(F)cc(C#Cc4ccccc4)cc3F)C(=O)CC2(C)C1=O` (racemic) [Example 85, (9aRS)-7-[2,6-difluoro-4-(2-phenylethynyl)phenyl]-9a-methyl-2-(o-tolylmethyl)-4,9-dihydro-3H-pyrazino[1,2-c]pyrimidine-1,6,8-trione], the Emax was determined as 83% and the EC50 was found to be 205 nM. Consider `C[C@@]12CC(=O)N(c3c(F)cc(C#Cc4ccccc4)cc3F)C(=O)N1CCN(c1cccnc1)C2=O` [Example 7, (9aS)-7-[2,6-difluoro-4-(2-phenylethynyl)phenyl]-9a-methyl-2-(3-pyridyl)-4,9-dihydro-3H-pyrazino[1,2-c]pyrimidine-1,6,8-trione], for which the Emax amounted to 126% and the EC50 is 73 nM. `Cc1ccnc(N2CCN3C(=O)N(c4c(F)cc(C#Cc5ccccc5)cc4F)C(=O)CC3(C)C2=O)c1` (racemic) [Example 12, (9aRS)-7-(2,6-difluoro-4-(phenylethynyl)phenyl)-9a-methyl-2-(4-methylpyridin-2-yl)tetrahydro-1H-pyrazino[1,2-c]pyrimidine-1,6,8(2H,7H)-trione]: the Emax worked out at 126% and the EC50 was found to be 131 nM.

What is called EC50 is the concentration that produces a half-maximal response.

For the origin of these results see patent publication US10011607B2, “Ethynyl derivatives” (Hoffmann-La Roche Inc., priority 2015, dated 2018).
